According to paper PMC10281575, “PfCRT mutations conferring piperaquine resistance in falciparum malaria shape the kinetics of quinoline drug binding and transport” (PLOS Pathogens, 2023):
Several values for one entry are separate records, joined by “and”; a condition that tells them apart may be missing. Equal entries are not always repeated.

Biological target: T1, PfCRT^Dd2 (Plasmodium falciparum, UniProt Q8IBZ9, A220S/I356T/K76T/M74I/N326S/N75E/Q271E/R371I)
T1 sequence (Q8IBZ9 1-424 M74I/N75E/K76T/A220S/Q271E/N326S/I356T/R371I): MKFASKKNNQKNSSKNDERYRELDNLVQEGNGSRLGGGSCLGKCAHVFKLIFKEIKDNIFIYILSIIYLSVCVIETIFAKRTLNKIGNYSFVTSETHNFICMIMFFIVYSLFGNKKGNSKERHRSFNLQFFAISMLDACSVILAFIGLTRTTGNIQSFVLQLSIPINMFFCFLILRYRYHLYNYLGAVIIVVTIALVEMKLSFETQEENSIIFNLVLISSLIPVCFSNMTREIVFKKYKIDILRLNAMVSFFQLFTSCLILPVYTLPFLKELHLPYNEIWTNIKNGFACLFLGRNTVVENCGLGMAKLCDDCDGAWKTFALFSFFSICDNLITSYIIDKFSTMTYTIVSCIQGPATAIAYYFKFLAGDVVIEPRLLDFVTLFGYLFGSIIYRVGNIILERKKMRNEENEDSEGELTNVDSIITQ
Assay: Verapamil inhibition of PfCRT-mediated CQ and PPQ transport in oocytes, PfCRT^Dd2
Assay type: cell-based
Set-up: expressed in transfected cells; host or cells: Xenopus laevis oocytes injected with in vitro transcribed RNA (pSP64T)
Details: individual replicates (S3 Fig)
Experimental: In all cases, the PfCRT-mediated CQ and PPQ transport was inhibited in the presence of 100 μM verapamil (S3 Fig).
Drug transport assays were performed as previously described. Briefly, measurements of radiolabeled drug uptake were made over 1 h, unless otherwise specified. […] Where specified, one or more unlabeled drugs were also present at the indicated concentrations. The direction of drug transport in the assays is from the extracellular medium (pH 6) into the oocyte cytosol (pH 7.2), which corresponds to the efflux of CQ or PPQ from the acidic digestive vacuole (pH 5.2) into the parasite cytosol (pH 7.2). The uptake assays were terminated by removing the oocytes from the reaction medium and washing them three times with 2 mL of ice-cold ND96 buffer. Each oocyte was transferred to a separate scintillation vial and lysed by the addition of 200 μL of a 5% SDS solution. The radioactivity in the sample was measured using a liquid scintillation analyser Tri-Carb 4910 TR (PerkinElmer). Water-injected oocytes were analyzed in parallel as a negative control. The buffer from each condition was measured in duplicate in parallel to each experiment to transform counts per minute into pmol of drug. Drug uptake attributable to PfCRT was determined by subtracting the background uptake from water-injected oocytes from that of PfCRT-expressing oocytes. In all cases, at least three independent experiments were performed on oocytes from different frogs, and for each condition in an experiment, measurements were made from 10 oocytes per treatment.
Supplementary file ppat.1011436.s006.tif: S3 Fig Verapamil inhibits PfCRT-mediated transport of CQ and PPQ. […] Left panels, data is shown as individual biological replicates (coloured symbols) overlaid onto bars representing the Mean ± S.E.M. (error bars). A one-tailed Student’s t-test was performed between untreated (no VP) and treated (+ 100 μM VP) samples, and the obtained p values are shown. Right panels, the uptake in VP-treated samples was divided by the uptake in their corresponding untreated pairs and subtracted from 100% to get the percentage of uptake inhibition mediated by the presence of 100 μM verapamil in the extracellular medium. Error bars are S.E. (TIF) Click here for additional data file.

| SMILES | PfCRTDd2-mediated PPQ transport (50 µM PPQ + 100 µM VP) | PfCRTDd2-mediated PPQ transport (50 µM PPQ) | PfCRTDd2-mediated CQ transport (50 µM CQ + 100 µM VP) | PfCRTDd2-mediated CQ transport (50 µM CQ) |
| --- | --- | --- | --- | --- |
| Clc1ccc2c(N3CCN(CCCN4CCN(c5ccnc6cc(Cl)ccc56)CC4)CC3)ccnc2c1 [PPQ, piperaquine] | 5.44 pmol oocyte-1 h-1 and 8.16 pmol oocyte-1 h-1 and 20.06 pmol oocyte-1 h-1 and 36.26 pmol oocyte-1 h-1 and 13.97 pmol oocyte-1 h-1 | 28.14 pmol oocyte-1 h-1 and 21.87 pmol oocyte-1 h-1 and 89.78 pmol oocyte-1 h-1 and 46.28 pmol oocyte-1 h-1 and 30.01 pmol oocyte-1 h-1 and 33.33 pmol oocyte-1 h-1 | – | – |
| CCN(CC)CCCC(C)Nc1ccnc2cc(Cl)ccc12 (stereo not shown) [CQ, chloroquine] | – | – | 1.980 pmol oocyte-1 h-1 and 2.230 pmol oocyte-1 h-1 and 2.450 pmol oocyte-1 h-1 and 1.670 pmol oocyte-1 h-1 and 3.620 pmol oocyte-1 h-1 | 3.900 pmol oocyte-1 h-1 and 4.910 pmol oocyte-1 h-1 and 4.760 pmol oocyte-1 h-1 and 7.490 pmol oocyte-1 h-1 and 5.040 pmol oocyte-1 h-1 and 3.980 pmol oocyte-1 h-1 and 10.460 pmol oocyte-1 h-1 |
